From EP3910064A1, “PROCESS OF OBTAINING A PHLOROTANNIN-ENRICHED EXTRACT HAVING ANTI-ENZYMATIC ACTION FOR USE IN DERMATOLOGY” (Instituto Politécnico De Leiria, priority 2020, dated 2021)

Molecular target: collagenase
Experiment: Collagenase inhibition (analytical kit)
Type: biochemical
Details: confidence interval in parentheses
From the text: Table 2 - Inhibitory effect (IC50) of the different extracts obtained based on the interval of concentrations tested on the enzymes collagenase and elastase.

Compound: O=C(O[C@@H]1Cc2c(O)cc(O)cc2O[C@@H]1c1cc(O)c(O)c(O)c1)c1cc(O)c(O)c(O)c1 [Epigallocatechin gallate]
- IC50 Collagenase: 4.8 (4.10-5.50) µg/mL
